Test results: patent publication US20230175022A1 (priority 2020, published 2023)

System: S. cerevisiae
Assay: Growth of S. cerevisiae strains in overlay/underlay candidates (OD600)
Type: cell-based, Saccharomyces cerevisiae
Details: 20% (v/v) overlay/underlay; YP+2% (w/v) galactose
Method: To test non-toxic organic overlays/underlays, different non-production background and production strains of S. cerevisiae (Table 1) were inoculated from colonies on YPD agar plates and grown for approximately 24 hours in 96 well deepwell plates containing 300 μL YP+2% (w/v) glucose at 30° C. with 950 rpm shaking (3 mm throw) and maintained at 85% humidity. These cultures were then used to inoculate 96 well deepwell plates containing 300 μL YP+2% (w/v) galactose (YP gal) or glucose (YP glu), with or without addition of 0.04% (w/v) hexanoic acid (HA) plus 20% (v/v) (60 μL) of different overlays/underlays or no organic phase, under the same conditions described for precultures. At three different times (specified in plots), biological triplicate cultures were sampled and optical density at 600 nm (0D600) was measured as a proxy for biomass growth on a SpectraMax plate reader, with dilution in water to allow measurements to be within the linear range of instrumental readings. Averaged OD600s across at least three biological replicates of each strain/overlay condition at each sampling time. Multiple sets of measurements were performed on large groups of overlay and underlay candidates in different batches.

Compound | toxicity to growth (OD600), with galactose
CCOC(=O)C(CC)(CC)C(=O)OCC [diethyl diethylmalonate] | substantial lag
CC(C)(C)OC(=O)CC(=O)OC(C)(C)C [di-cert-butyl malonate, Di-tert-butyl malonate] | appearing toxic or to induce substantial lag

Same assay, conditions: 20% (v/v) overlay/underlay; YP+2% (w/v) galactose or glucose; 96 well deepwell plates; production and non-production strains

Compound | toxicity to growth (OD600 as proxy for biomass growth)
2,2,4-trimethyl-1,3-pentanediol monoisobutyrate [Texanol] | inhibitory to growth
CCCCCCCCCCCCCC(=O)OC(C)C [IPM, isopropyl myristate] | non-toxic
CCCCCCOC(=O)CCCCC [hexyl hexanoate] | moderately non-toxic
CCCCCCCC/C=C\CCCCCCCCO [oleyl alcohol] | supports robust growth
CC(C)OC(=O)CCCCC(=O)OC(C)C [diisopropyl adipate] | Some growth was observed
CCCCCCCCCCCCCC [tetradecane] | Lack of toxicity
CCCCCCCCCC(=O)OC [methyl decanoate] | moderately inhibitory to growth but still allowed for growth
CCCCCCCCCCCCCC(=O)OC [methyl myristate] | non-toxic
CCCCCCCCCCCC(=O)OCC [ethyl laurate] | non-toxic
CCCCOC(=O)CCCCCCCCC(=O)OCCCC [Dibutyl sebacate] | completely non-inhibitory to growth
CCCCCCCCCCO [Decanol] | toxic to growth
CCCCCCCCOC(C)=O [octyl acetate] | toxic
CCCCCCCCCCCC [dodecane] | Lack of toxicity
CCCCCCCC(=O)OC(C)C [Isopropyl octanoate] | moderately inhibitory but allowed for some growth
CCCCOC(=O)CCCCC(=O)OCCCC [dibutyl adipate] | no apparent toxicity
CCCCCCCC(=O)OCC(COC(=O)CCCCCCC)OC(=O)CCCCCCC [Tricaprylin] | fairly toxic
CCOC(=O)CCCCCCCCC(=O)OCC [diethyl sebacate] | modest growth by most strains
CCCCCCCCCCCC(=O)OCCCC [butyl laurate] | non-toxic
CCCCCCCCCCCCCCCC [hexadecane] | Lack of toxicity
CCCCCCCCCC(=O)OCC [ethyl decanoate] | increasingly non-toxic
CCCCCCCCCCCCCC(=O)OCC [ethyl myristate] | non-toxic

Same assay, conditions: 20% (v/v) overlay/underlay; YP+2% (w/v) glucose

Compound | toxicity to growth (OD600), with glucose
CCOC(=O)C(CC)(CC)C(=O)OCC [diethyl diethylmalonate] | modest growth by most strains
CC(C)(C)OC(=O)CC(=O)OC(C)(C)C [di-cert-butyl malonate, Di-tert-butyl malonate] | supported growth of all strains
CCCCCCCC(=O)OCC(COC(=O)CCCCCCC)OC(=O)CCCCCCC [Tricaprylin] | allowed some growth of all strains

System: not listed separately
Assay: Partitioning of olivetolic acid between organic overlay and aqueous culture phase (shake flask, HPLC)
Type: physicochemical
Details: IPM overlay; YP+2% galactose culture, not acidified
Method: Precultures of LSC3-2 and LSC3-18 were inoculated from YPD streak plates and grown in 30 mL of YP+2% (w/v) glucose in baffled 250 mL shake flasks for approximately 18 hours overnight at 30° C. with 200 rpm shaking. Baffled 250 mL shake flasks containing 30 mL of YP+2% (w/v) galactose, 5 mL of IPM or diethyl sebacate, and 0.04% (w/v) hexanoic acid, were inoculated with 1 mL of preculture and grown for at 30° C. with 200 rpm shaking. After 24 and 48 hours, samples of cell culture broth plus overlay were sampled into microcentrifuge tubes and stored at −20° C. at least overnight. Sample tubes were thawed and aqueous sample and overlay sample were pipetted into plates for HPLC analysis. Overlay samples were diluted 1:1 v/v with methanol in the HPLC plate prior to analysis.

Compound | partitioning between overlay and aqueous phase
CCCCCc1cc(O)cc(O)c1C(=O)O [OA, olivetolic acid] | partitioned between the IPM and aqueous phases

Same assay, conditions: diethyl sebacate overlay; YP+2% galactose culture, not acidified

Compound | partitioning between overlay and aqueous phase
CCCCCc1cc(O)cc(O)c1C(=O)O [OA, olivetolic acid] | entirely partitioned into diethyl sebacate

System: not listed separately
Assay: Partitioning of divarinic acid and divarin into organic overlays (96 well deepwell plate, HPLC)
Type: physicochemical
Details: Delft medium+CSM+2% glucose, 48 hours
Method: Several monoester and one diester overlay candidate were compared to IPM for production of divarinic acid and divarin. LSC3-13 precultures were inoculated from YPD streak plates and grown in 300 μL Delft medium+0.79 g/L complete supplement mixture (CSM) (ForMedium, Norfolk, UK)+2% (w/v) glucose in round-bottom square well 96 well deepwell plates for approximately 18 hours overnight at 30° C. with 950 rpm shaking in an Infors plate shaker. 96 well deepwell plate wells containing 300 μL of Delft medium+CSM+2% (w/v) glucose, 60 μL of different overlay solvents, and 0.08% (w/v) butyric acid, were inoculated with 10 μL of preculture and grown for 30° C. with 950 rpm shaking. After 48 hours, the aqueous layer and overlay were sampled on a Bravo automated liquid handling platform (Agilent) and samples from the aqueous and organic overlay phases were subjected to HPLC analysis to measure divarinic acid and divarin production.

Compound | partitioning into monoester overlays compared with olivetolic acid and olivetol
CCCc1cc(O)cc(O)c1 [divarin, 1,3-dihydroxy-5-propylbenzene] | partition less effectively
CCCc1cc(O)cc(O)c1C(=O)O [divarinic acid, 2,4-dihydroxy-6-propylbenzoic acid] | partition less effectively

System: S. cerevisiae
Assay: Growth of S. cerevisiae strains in overlay/underlay candidates (OD600)
Type: cell-based, Saccharomyces cerevisiae
Details: 1-10% (v/v), particularly 1-2.5% (v/v), in IPM and isopar M

Compound | toxicity to growth of mixture in IPM or isopar M
CC(C)(C)OC(=O)CC(=O)OC(C)(C)C [di-cert-butyl malonate, Di-tert-butyl malonate] | much lower toxicity
